This passage reports IC50 results from patent US12371426B2, “Pyridazine derivatives as SMARCA2/4 degraders” (Aurigene Discovery Technologies Limited, priority 2018, dated 2025).

In general, IC50 refers to the concentration that inhibits the measured activity by half.

SMILES strings stand for the structures. Some results are limits rather than exact numbers.

The test system of this test is NCI-H929 cells. As to the kind of experiment: Anti proliferative activity in NCI-H929 cell line by Cell Titer Glo assay. Format: cell-based. The conditions noted are these: Homo sapiens, 72 h, 3 days compound incubation, CellTiter Glo, read-out: Anti-proliferative activity IC50 group (NCI-H929 cells). As for the experimental part: Determination of Anti Proliferative Activity of Compounds in NCI-H929 and NCI-H838 Cell Lines by Cell Titer Glo® (promega) assay:
NCI-H929 (ATCC CRL-9068) or NCI-H838 (ATCC CRL-5844) cells were seeded in 96 well plate flat black clear bottom plates (Corning, Cat. No 3904) using complete RPMI-1640 media. Next day, compounds listed in the present invention were added to cells from 10 mM stocks made in DMSO (Sigma Cat no. D2650). Each concentration of compound was tested in triplicate with DMSO concentration at a final percentage not exceeding 0.3 in the cells. After the compound incubation (3 days for H929 and 8 days for H838) assay was terminated using 50 μl of CellTiter Glo® reagent (Promega, Cat. no G7572). CellTiter Glo® Luminescent reagent determines the number of viable cells based on quantitation of ATP present which is an indicator of cell number and metabolic activity. Luminescence readings were taken in Victor-3 instrument. Percent inhibition of proliferation was calculated using formula, % inhibition=100−(luminescence value of test/luminescence value of DMSO control)*100. DMSO control (0%)=Cells in complete media with DMSO; blank=Media alone containing DMSO. IC50 was calculated using graph pad prism software.
Herein group “A” refers to IC50 value lower than 1 μM, “B” refers to IC50 value between 1-10 μM (both inclusive) and “C” refers to IC50 value higher than 10 μM or less than 50% activity at 10 μM.
(In general: In ATP-based viability assays light output follows the ATP content of the culture.)
For `Cc1ncsc1-c1ccc([C@H](C)NC(=O)[C@@H]2C[C@@H](O)CN2C(=O)[C@@H](NC(=O)CN2CCN(c3cc(-c4ccccc4Cl)nnc3N)CC2)C(C)(C)C)cc1` [Compound 89], the IC50 is > 10 µM.
Regarding `Cc1ncsc1-c1ccc([C@H](C)NC(=O)[C@@H]2C[C@@H](O)CN2C(=O)[C@@H](NC(=O)CN2CCN(c3cc(Cl)nnc3N)CC2)C(C)(C)C)cc1` [Compound 50, (2S,4R)-1-((S)-2-(2-(4-(3-amino-6-chloropyridazin-4-yl)piperazin-1-yl)acetamido)-3,3-dimethylbutanoyl)-4-hydroxy-N—((S)-1-(4-(4-methylthiazol-5-yl)phenyl)ethyl)pyrrolidine-2-carboxamide], the IC50 is > 10 µM.
As for `Cc1ncsc1-c1ccc([C@H](C)NC(=O)[C@@H]2C[C@@H](O)CN2C(=O)[C@@H](NC(=O)CCCCCCC(=O)NC2CCN(c3cc(-c4ccccc4O)nnc3N)CC2)C(C)(C)C)cc1` [Compound 23], the IC50 lay within 1 to 10 µM.
For the compound `Cc1ncsc1-c1ccc(CNC(=O)[C@@H]2C[C@@H](O)CN2C(=O)[C@@H](NC(=O)CCCCCCC(=O)N2CCN(c3cc(-c4ccccc4O)nnc3N)CC2)C(C)(C)C)cc1` [Compound 34], the 50% inhibitory concentration (IC50) is > 10 µM.
`Cc1ncsc1-c1ccc([C@H](C)NC(=O)[C@@H]2C[C@H](O)CN2C(=O)[C@@H](NC(=O)CCCCCCC(=O)N2CCN(c3cc(-c4ccccc4O)nnc3N)CC2)C(C)(C)C)cc1` [Compound 115]: the IC50 was 1 to 10 µM.
Next, `Cc1ncsc1-c1ccc([C@H](C)NC(=O)[C@@H]2C[C@@H](O)CN2C(=O)[C@@H](NC(=O)CN2CCN(c3cc(C(=O)O)nnc3N)CC2)C(C)(C)C)cc1` [Compound 73, 6-amino-5-(4-(2-(((S)-1-((2S,4R)-4-hydroxy-2-(((S)-1-(4-(4-methylthiazol-5-yl)phenyl)ethyl)carbamoyl)pyrrolidin-1-yl)-3,3-dimethyl-1-oxobutan-2-yl)amino)-2-oxoethyl)piperazin-1-yl)pyridazine-3-carboxylic acid]: > 10 µM.
Next, `Cc1ncsc1-c1ccc(CNC(=O)[C@@H]2C[C@@H](O)CN2C(=O)[C@@H](NC(=O)COCCOCCNC(=O)C2CCN(c3cc(-c4ccccc4O)nnc3N)CC2)C(C)(C)C)cc1` [Compound 2]: > 10 µM.
For the compound `Nc1nnc(-c2ccccc2O)cc1N1CCC(C(=O)NCCOCCOCC(=O)Nc2cccc3c2C(=O)N(C2CCC(=O)NC2=O)C3=O)CC1` (stereo not shown) [Compound 9], the 50% inhibitory concentration (IC50) was > 10 µM.
Next, `Nc1nnc(-c2ccccc2O)cc1N1CCN(C(=O)CCCCCCC(=O)Nc2cccc3c2C(=O)N(C2CCC(=O)NC2=O)C3=O)CC1` (stereo not shown) [Compound 30]: > 10 µM; `Cc1ncsc1-c1ccc([C@H](C)NC(=O)[C@@H]2C[C@@H](O)CN2C(=O)[C@@H](NC(=O)CCCC(=O)N2CCN(c3cc(-c4ccccc4O)nnc3N)CC2)C(C)(C)C)cc1` [Compound 114]: > 10 µM; `Cc1ncsc1-c1ccc(CNC(=O)[C@@H]2C[C@@H](O)CN2C(=O)[C@@H](NC(=O)COCCN2CCN(c3cc(-c4ccccc4O)nnc3N)CC2)C(C)(C)C)cc1` [Compound 53, (2S,4R)-1-((S)-2-(2-(2-(4-(3-amino-6-(2-hydroxyphenyl)pyridazin-4-yl)piperazin-1-yl)ethoxy)acetamido)-3,3-dimethylbutanoyl)-4-hydroxy-N-(4-(4-methylthiazol-5-yl)benzyl)pyrrolidine-2-carboxamide]: > 10 µM.
The result for `Cc1ncsc1-c1ccc([C@H](C)NC(=O)[C@@H]2C[C@@H](O)CN2C(=O)[C@@H](NC(=O)CC2CN(c3cc(-c4ccccc4O)nnc3N)C2)C(C)(C)C)cc1` [Compound 104] reads 1 to 10 µM.
Regarding `Cc1ncsc1-c1ccc(CNC(=O)[C@H]2C[C@H](O)CN2C(=O)[C@H](NC(=O)CCCCCCCCCC(=O)NC2CCN(c3cc(-c4ccccc4O)nnc3N)CC2)C(C)(C)C)cc1` [Compound 22], the half-maximal inhibitory concentration (IC50) is > 10 µM.
Next, `Cc1ncsc1-c1ccc(CNC(=O)[C@@H]2C[C@@H](O)CN2C(=O)[C@@H](NC(=O)CCCCCCCCCC(=O)N2CCN(c3cc(-c4ccccc4O)nnc3N)CC2)C(C)(C)C)cc1` [Compound 35]: 1 to 10 µM; `Cc1ncsc1-c1ccc([C@H](C)NC(=O)[C@@H]2C[C@@H](F)CN2C(=O)[C@@H](NC(=O)CN2CCN(c3cc(-c4ccccc4O)nnc3N)CC2)C(C)(C)C)cc1` [Compound 107]: 1 to 10 µM; `Nc1nnc(-c2ccccc2O)cc1N1CCN(C(=O)CCCCCCCCCC(=O)Nc2cccc3c2CN(C2CCC(=O)NC2=O)C3=O)CC1` (stereo not shown) [Compound 27]: > 10 µM.
Next, `Cc1ncsc1-c1ccc(CNC(=O)[C@@H]2C[C@@H](O)CN2C(=O)[C@@H](NC(=O)COCC(=O)NC2CCN(c3cc(-c4ccccc4O)nnc3N)CC2)C(C)(C)C)cc1` [Compound 14]: > 10 µM; `Cc1ncsc1-c1ccc(CNC(=O)[C@@H]2C[C@@H](O)CN2C(=O)[C@@H](NC(=O)COCCOCCOCCNC(=O)C2CCN(c3cc(-c4ccccc4O)nnc3N)CC2)C(C)(C)C)cc1` [Compound 4]: > 10 µM.
The result for `Nc1nnc(-c2ccccc2O)cc1N1CCN(C(=O)CCCCCCC(=O)Nc2cccc3c2CN(C2CCC(=O)NC2=O)C3=O)CC1` (stereo not shown) [Compound 26] reads > 10 µM.
As for `Nc1nnc(-c2ccccc2O)cc1N1CCN(C(=O)CCCC(=O)Nc2cccc3c2CN(C2CCC(=O)NC2=O)C3=O)CC1` (stereo not shown) [Compound 25], the 50% inhibitory concentration (IC50) was > 10 µM.
Next, `Nc1nnc(-c2ccccc2O)cc1N1CCN(CC(=O)Nc2cccc3c2CN(C2CCC(=O)NC2=O)C3=O)CC1` (stereo not shown) [Compound 42]: > 10 µM; `Cc1ncsc1-c1ccc([C@H](C)NC(=O)[C@@H]2C[C@@H](O)CN2C(=O)[C@@H](NCC(=O)N2CCN(c3cc(-c4ccccc4O)nnc3N)CC2)C(C)(C)C)cc1` [Compound 49, (2S,4R)-1-((S)-2-((2-(4-(3-amino-6-(2-hydroxyphenyl)pyridazin-4-yl)piperazin-1-yl)-2-oxoethyl)amino)-3,3-dimethylbutanoyl)-4-hydroxy-N—((S)-1-(4-(4-methylthiazol-5-yl)phenyl)ethyl)pyrrolidine-2-carboxamide]: 1 to 10 µM.
Turning to `Cc1ncsc1-c1ccc(CNC(=O)[C@@H]2C[C@@H](O)CN2C(=O)[C@@H](NC(=O)CCCC(=O)NC2CCN(c3cc(-c4ccccc4O)nnc3N)CC2)C(C)(C)C)cc1` [Compound 20], the IC50 is > 10 µM.
Regarding `Cc1ncsc1-c1ccc([C@H](C)NC(=O)[C@@H]2C[C@@H](O)CN2C(=O)[C@@H](NC(=O)CC2CCN(c3cc(-c4ccccc4F)nnc3N)CC2)C(C)(C)C)cc1` [Compound 97], the IC50 is 1 to 10 µM.
The result for `Nc1nnc(-c2ccccc2O)cc1N1CCC(NC(=O)COCC(=O)Nc2cccc3c2CN(C2CCC(=O)NC2=O)C3=O)CC1` (stereo not shown) [Compound 15] reads > 10 µM; that for `Cc1ncsc1-c1ccc([C@H](C)NC(=O)[C@@H]2C[C@H](O)CN2C(=O)[C@@H](NC(=O)CN2CCN(c3cc(-c4ccccc4O)nnc3N)CC2)C(C)(C)C)cc1` [Compound 106], 1 to 10 µM; that for `Nc1nnc(-c2ccccc2O)cc1N1CCC(C(=O)NCCOCCOCCOCCOCC(=O)Nc2cccc3c2C(=O)N(C2CCC(=O)NC2=O)C3=O)CC1` (stereo not shown) [Compound 8], > 10 µM.
With `Cc1ncsc1-c1ccc(CNC(=O)[C@@H]2C[C@@H](O)CN2C(=O)[C@@H](NC(=O)C2CCN(c3cc(-c4ccccc4O)nnc3N)CC2)C(C)(C)C)cc1` [Compound 5], the IC50 is > 10 µM.
